Laboratory results reported in BindingDB's records for doi:10.1080/14756360701536455 (Pcsir Laboratories Complex, 2008).

What was measured:
[1] = molecular target: T1, Seed linoleate 13S-lipoxygenase-1 (Glycine max, UniProt P08170); assay: Lipoxygenase Inhibition Assay; details: pH 8; 25 °C
T1 sequence (P08170 whole entry): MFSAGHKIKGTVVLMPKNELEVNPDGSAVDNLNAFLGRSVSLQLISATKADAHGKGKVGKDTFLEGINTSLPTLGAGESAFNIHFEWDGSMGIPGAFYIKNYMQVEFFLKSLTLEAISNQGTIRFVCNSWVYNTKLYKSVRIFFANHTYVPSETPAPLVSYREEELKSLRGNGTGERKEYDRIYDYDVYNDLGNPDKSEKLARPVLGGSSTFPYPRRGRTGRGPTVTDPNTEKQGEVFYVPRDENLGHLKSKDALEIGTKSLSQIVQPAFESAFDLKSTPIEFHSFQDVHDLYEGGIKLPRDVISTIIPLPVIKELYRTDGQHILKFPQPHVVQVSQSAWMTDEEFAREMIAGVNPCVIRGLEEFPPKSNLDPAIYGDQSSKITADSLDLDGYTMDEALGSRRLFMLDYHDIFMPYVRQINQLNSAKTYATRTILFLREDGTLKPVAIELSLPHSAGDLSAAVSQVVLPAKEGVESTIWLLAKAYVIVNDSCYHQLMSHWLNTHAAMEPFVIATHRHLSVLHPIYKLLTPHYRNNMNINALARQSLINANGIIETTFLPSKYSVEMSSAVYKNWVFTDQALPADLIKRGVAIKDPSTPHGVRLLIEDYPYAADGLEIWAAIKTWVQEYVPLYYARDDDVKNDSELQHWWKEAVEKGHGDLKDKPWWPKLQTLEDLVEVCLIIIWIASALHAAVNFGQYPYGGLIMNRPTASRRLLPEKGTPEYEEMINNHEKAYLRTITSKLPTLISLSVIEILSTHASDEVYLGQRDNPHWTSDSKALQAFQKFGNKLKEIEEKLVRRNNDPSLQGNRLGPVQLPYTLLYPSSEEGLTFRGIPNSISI
Method: LOX inhibiting activity was measured by modifying the spectrophotometric method developed by Tappel.

[2] = molecular target: Carboxylic ester hydrolase (Equus caballus, UniProt Q9N1N9); assay: Cholinesterase Inhibition Assay; details: pH 8; 25 °C
Method: Butyrylcholinesterase activity-inhibiting activities were measured by a slightly modified spectrophotometric method developed by Ellman. DTNB was used for the measurement of cholinesterase activity and butyrylthiocholine chloride was used as a substrate.

Sequence of Carboxylic ester hydrolase (Q9N1N9 whole entry): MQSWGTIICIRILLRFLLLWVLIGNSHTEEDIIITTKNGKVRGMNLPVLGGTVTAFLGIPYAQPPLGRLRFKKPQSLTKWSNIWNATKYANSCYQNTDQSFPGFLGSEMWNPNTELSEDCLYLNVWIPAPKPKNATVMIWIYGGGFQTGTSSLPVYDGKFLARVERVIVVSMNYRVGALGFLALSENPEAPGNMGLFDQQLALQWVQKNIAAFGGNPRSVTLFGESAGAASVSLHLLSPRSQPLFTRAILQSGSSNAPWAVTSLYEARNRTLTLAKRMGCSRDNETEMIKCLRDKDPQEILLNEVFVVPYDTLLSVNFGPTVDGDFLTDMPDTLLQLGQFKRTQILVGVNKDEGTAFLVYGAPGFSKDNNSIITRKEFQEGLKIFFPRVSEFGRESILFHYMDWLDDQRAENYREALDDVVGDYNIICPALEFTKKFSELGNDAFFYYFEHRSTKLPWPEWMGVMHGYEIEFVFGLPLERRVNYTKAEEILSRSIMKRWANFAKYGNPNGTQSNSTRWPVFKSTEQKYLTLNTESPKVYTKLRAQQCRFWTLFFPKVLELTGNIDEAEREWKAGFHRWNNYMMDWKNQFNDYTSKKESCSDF

SMILES	IC50 [1] [µM]	IC50 [2] [µM]
C=CC(CC(=NOS(=O)(=O)O)SC1OC(CO)C(O)C(O)C1O)OC(=O)CC1(O)C(=O)Nc2ccccc21 (stereo not drawn) [3'-Hydroxyepiglucoisatisin, 3]	30.6	16.3
O=C(O)CC(=O)OCC1OC(Oc2c[nH]c3ccccc23)C(O)C(=O)C1O (stereo not drawn) [Isatan A, 5]	49.3	43.4
C=CC(CC(=NOS(=O)(=O)O)SC1OC(CO)C(O)C(O)C1O)OC(=O)CC1C(=O)Nc2ccccc21 (stereo not drawn) [Epiglucoisatisin, 2]	33.7	19.7
O=C1C(O)C(CO)OC(Oc2c[nH]c3ccccc23)C1O (stereo not drawn) [Isatan B, 6]	53.8	47.6
N#CC(=C1Nc2ccccc2C1=O)c1c[nH]c2ccccc12 [2-[Cyano(3-indolyl)methylene]-3-indolone, 1]	39.1	23.5
O=S(=O)(O)ON=C(Cc1cc2ccccc2n1S(=O)(=O)O)SC1OC(CO)C(O)C(O)C1O (stereo not drawn) [Sulfoglucobrassicin, 4]	41.9	24.8
COc1ccc2c3c1O[C@H]1C[C@@H](O)C=C(CN(C)C2)[C@H]31 [Galanthamine, 7]		8.5
